Four molecules from PMC4298654, “In vivo formation of N-acyl-fumonisin B1” (Mycotoxin Research, 2014) can be followed below.

The data set in a line: In vivo formation of NAFB1 and NAHFB1 in rat kidney and liver (HPLC-ESI-MS/MS). Details: N-acyl-derivative in tissue sample, analysis a / N-acyl-derivative in tissue sample, analysis b / N-acyl-derivative in tissue sample, mean: unit not given here. The conditions noted are these: 5 days. From the text:
The study protocol was approved by the Institutional Animal Care and Use Committee, Richard B. Russell Agricultural Research Center, Athens, GA. Male Sprague–Dawley rats (Harlan Industries, Indianapolis, IN, USA), 7 weeks of age at receipt, were individually housed in stainless steel, wire mesh cages in an environmentally controlled room having a 12-h light/dark cycle. Food (2019 Global Rodent Diet, Teklad, Madison, WI, USA) and fresh tap water were provided ad libitum. After a 1 week acclimation period, the animals were randomly assigned to five groups (n = 2/group) having mean weights of 215 to 216 g (weight range of all animals, 211 to 220 g). For five consecutive days, they were observed, weighed, and given an intraperitoneal injection (ip) of 0 (vehicle), 0.5, 1.0, or 2.0 mg/kg body weight FB1 (provided by R. Eppley, US FDA), 1.0 mg/kg body weight HFB1 (positive control) (Voss et al. [2009]), or vehicle (0.9 % physiological saline). These doses corresponded to 0.69, 1.38, and 2.77 μmol FB1/kg body weight and 2.47 μmol/kg body weight HFB1 per day. In order to compare the effects of FB1 and HFB1, dosages will be expressed as molar concentrations and, on this basis, the high dose of FB1 is roughly equivalent to that of the positive control dose of HFB1. Dosing solutions were sterile filtered and administered at a volume rate of 10 ml/kg body weight. The animals were fasted overnight prior to administration of the final dose. The rats were euthanized (CO2 inhalation and exsanguination) 60 to 90 min following the final dose administration and examined by necropsy. The kidney and liver specimens were fixed in 10 % neutral buffered formalin, processed, and microscopically evaluated without knowledge of the animal’s identity or treatment group. Three representative liver and kidney specimens (100 mg each) were also collected, immediately frozen, and stored (−80 °C) until processed, at which time the tissues were thawed and homogenized in distilled/deionized water (1 ml water/100 mg tissue). The homogenates were lyophilized before they were shipped by overnight courier for the analysis of fumonisin metabolites and sphingolipids.
Lyophilized liver and kidney tissues (100 mg wet weight equivalents) were processed for the quantification of FB1, HFB1, NAFB1, NAHFB1, and sphingolipids. Preparation of the tissue samples was performed according to a previously published method (Harrer et al. [2013]). For the quantification of FB1 and HFB1, a d6-labeled derivative of FB1 (FB1-d6) was used as the internal standard. Synthetic derivatives with a heptadecanoic fatty acid (C17:0) residue were used as internal standards for the quantification of N-acyl-fumonisins and ceramides (N-C17:0-FB1, N-C17:0-HFB1, and N-C17:0-ceramide). The sphingoid bases and their phosphate derivatives were quantified using synthetic derivatives with a C17-acyl-backbone: sphingosine (C17:1), sphingosine-1-phosphate (C17:1), sphinganine (C17:0), sphinganine-1-phosphate (C17:0) as internal standards. The standards were dissolved in methanol:chloroform (2:1, v/v) and then mixed with the tissue samples. The samples spiked with internal standard were kept at room temperature for 30 min before being processed further. The internal standard-spiked samples were first extracted with ethyl acetate, isopropanol, and water (60:30:10, v/v/v) and a second time using methanol, chloroform, and water (60:30:10, v/v/v). The extracts were combined, the solvents removed by evaporation, and the dried samples stored at−80 °C till analyzed.
For the analysis, the samples were reconstituted in a mixture of water, methanol, and tetrahydrofurane (60:24:16, v/v/v). The NAFB1 and NAHFB1 derivatives having the following fatty acyl chain lengths were quantified by HPLC-MS/MS: C16:0, C18:0, C20:0, C22:0, C24:0, C26:0. Furthermore, we also quantified the unsaturated derivatives C24:1 and C26:1. The results are given as the sum of all N-acyl derivatives of FB1 or HFB1. […]

Where [1] appears, read: Kidney, treatment FB1 0,5 mg/kg BW ip.
The mark [2] stands for this setting: Kidney, treatment FB1 1 mg/kg BW ip.
[3] abbreviates: Kidney, treatment FB1 2 mg/kg BW ip.
[4] abbreviates: Kidney, treatment HFB1 1 mg/kg BW ip.
Where [5] appears, read: Liver, treatment FB1 0,5 mg/kg BW ip.
[6] abbreviates: Liver, treatment FB1 1 mg/kg BW ip.
The mark [7] stands for this setting: Liver, treatment FB1 2 mg/kg BW ip.
The mark [8] stands for this setting: Liver, treatment HFB1 1 mg/kg BW ip.

Turning to `CCCCCCCCCCCCCCCCCC(=O)N[C@@H](C)[C@@H](O)C[C@H](O)CCCC[C@@H](O)C[C@H](C)C[C@H](O)[C@H](O)[C@H](C)CCCC` [HFB1C18:0], the “N-acyl-derivative in tissue sample, analysis a” value (shortened to “N-acyl-derivative … analysis a”) is given as 0,1 under setting [1]; 0,1 under setting [2]; 0,0 under setting [3]; 2,6 under setting [4]; 0,3 under setting [5]; 0,0 under setting [6]. In addition, the “N-acyl-derivative … analysis a” value runs as follows: under setting [7], 0,0; under setting [8], 1,5. The “N-acyl-derivative in tissue sample, analysis b” value (“N-acyl-derivative … analysis b” for short) is 0,2 under setting [1]; 0,0 under setting [2]; 0,1 under setting [3]; 1,8 under setting [4]; 0,1 under setting [5]; 0,0 under setting [6]. The “N-acyl-derivative … analysis b” value was 0,0 under setting [7] and 2,0 under setting [8]. The “N-acyl-derivative in tissue sample, mean” value is given as 0,2 under setting [1]; 0,1 under setting [2]; 0,1 under setting [3]; 2,2 under setting [4]; 0,2 under setting [5]; 0,0 under setting [6]. The “N-acyl-derivative in tissue sample, mean” value is recorded as 0,0 under setting [7] and 1,8 under setting [8].
For `CCCCCCCCCCCCCCCCCCCCCC(=O)NC(C)C(O)CC(O)CCCCC(O)CC(C)CC(OC(=O)CC(CC(=O)O)C(=O)O)C(OC(=O)CC(CC(=O)O)C(=O)O)C(C)CCCC` (stereo not drawn) [FB1C22:0], the “N-acyl-derivative … analysis a” value is 0,7 under setting [1]; 0,9 under setting [2]; 0,9 under setting [3]; 0,0 under setting [4]; 2,9 under setting [5]; 1,2 under setting [6]. Moreover, the “N-acyl-derivative … analysis a” value was 2,9 under setting [7] and 0,0 under setting [8]. Further, the “N-acyl-derivative … analysis b” value under setting [1] was 0,7; the “N-acyl-derivative … analysis b” value under setting [2] is reported as 0,6; the “N-acyl-derivative … analysis b” value under setting [3] was 1,4; the “N-acyl-derivative … analysis b” value under setting [4] is recorded as 0,0; the “N-acyl-derivative … analysis b” value under setting [5] is 6,4; the “N-acyl-derivative … analysis b” value under setting [6] was 4,0. For the same molecule, the “N-acyl-derivative … analysis b” value runs as follows: under setting [7], 4,6; under setting [8], 0,0. Further, the “N-acyl-derivative in tissue sample, mean” value by setting is: under setting [1], 0,7; under setting [2], 0,7; under setting [3], 1,2; under setting [4], 0,0; under setting [5], 4,7; under setting [6], 2,6. Besides, the “N-acyl-derivative in tissue sample, mean” value is, setting by setting: under setting [7], 3,8; under setting [8], 0,0.
As to `CCCCCCCCCCCCCCCCCCCC(=O)NC(C)C(O)CC(O)CCCCC(O)CC(C)CC(OC(=O)CC(CC(=O)O)C(=O)O)C(OC(=O)CC(CC(=O)O)C(=O)O)C(C)CCCC` (stereo not drawn) [FB1C20:0], the “N-acyl-derivative … analysis a” value by setting is: under setting [1], 0,2; under setting [2], 0,2; under setting [3], 0,0; under setting [4], 0,0; under setting [5], 0,0; under setting [6], 0,0. Besides, the “N-acyl-derivative … analysis a” value is recorded as 0,0 under setting [7] and 0,0 under setting [8]. Moreover, the “N-acyl-derivative … analysis b” value under setting [1] is reported as 0,5; the “N-acyl-derivative … analysis b” value under setting [2] is on record as 0,0; the “N-acyl-derivative … analysis b” value under setting [3] is listed as 0,6; the “N-acyl-derivative … analysis b” value under setting [4] is reported as 0,0; the “N-acyl-derivative … analysis b” value under setting [5] is 0,0; the “N-acyl-derivative … analysis b” value under setting [6] was 0,0. Also, the “N-acyl-derivative … analysis b” value is reported as 0,0 under setting [7] and 0,0 under setting [8]. The “N-acyl-derivative in tissue sample, mean” value was 0,4 under setting [1]; 0,1 under setting [2]; 0,3 under setting [3]; 0,0 under setting [4]; 0,0 under setting [5]; 0,0 under setting [6]. Also, the “N-acyl-derivative in tissue sample, mean” value was 0,0 under setting [7] and 0,0 under setting [8].
With `CCCCCCCCCCCCCCCC(=O)N[C@@H](C)[C@@H](O)C[C@H](O)CCCC[C@@H](O)C[C@H](C)C[C@H](O)[C@H](O)[C@H](C)CCCC` [HFB1C16:0], the “N-acyl-derivative … analysis a” value under setting [1] is recorded as 0,0; the “N-acyl-derivative … analysis a” value under setting [2] was 0,2; the “N-acyl-derivative … analysis a” value under setting [3] is on record as 0,3; the “N-acyl-derivative … analysis a” value under setting [4] was 22,7; the “N-acyl-derivative … analysis a” value under setting [5] is 0,3; the “N-acyl-derivative … analysis a” value under setting [6] is given as 0,0. Moreover, the “N-acyl-derivative … analysis a” value under setting [7] is recorded as 0,0 and the “N-acyl-derivative … analysis a” value under setting [8] is given as 34,9. Also, the “N-acyl-derivative … analysis b” value reads like this: under setting [1], 0,2; under setting [2], 0,1; under setting [3], 0,5; under setting [4], 37,3; under setting [5], 0,4; under setting [6], 0,4. Further, the “N-acyl-derivative … analysis b” value by setting is: under setting [7], 0,3; under setting [8], 44,3. The “N-acyl-derivative in tissue sample, mean” value is given as 0,1 under setting [1]; 0,2 under setting [2]; 0,4 under setting [3]; 30,0 under setting [4]; 0,3 under setting [5]; 0,2 under setting [6]. The “N-acyl-derivative in tissue sample, mean” value is, setting by setting: under setting [7], 0,1; under setting [8], 39,6.
